Results as given in ChEMBL document CHEMBL3393060, “Inhibitors of c-Jun N-terminal kinases: an update” (J Med Chem, 2015).
Each block holds one compound with its values, some of them ahead of it.

Legend:
[1] = molecular target: Mitogen-activated protein kinase 10 (Rattus norvegicus, UniProt P49187); experiment: Inhibition of JNK3-mediated c-jun phosphorylation in rat INS1 cells; assay type: cell-based
[2] = molecular target: MAP kinase p38 (Homo sapiens, UniProt O15264+Q15759+Q16539+P53778); experiment: Inhibition of p38 (unknown origin); assay type: protein assay
[3] = molecular target: T1, Mitogen-activated protein kinase 9 (Homo sapiens, UniProt P45984); experiment: Inhibition of JNK2 (unknown origin) by time-resolved fluorescence assay
T1 sequence (P45984 whole entry): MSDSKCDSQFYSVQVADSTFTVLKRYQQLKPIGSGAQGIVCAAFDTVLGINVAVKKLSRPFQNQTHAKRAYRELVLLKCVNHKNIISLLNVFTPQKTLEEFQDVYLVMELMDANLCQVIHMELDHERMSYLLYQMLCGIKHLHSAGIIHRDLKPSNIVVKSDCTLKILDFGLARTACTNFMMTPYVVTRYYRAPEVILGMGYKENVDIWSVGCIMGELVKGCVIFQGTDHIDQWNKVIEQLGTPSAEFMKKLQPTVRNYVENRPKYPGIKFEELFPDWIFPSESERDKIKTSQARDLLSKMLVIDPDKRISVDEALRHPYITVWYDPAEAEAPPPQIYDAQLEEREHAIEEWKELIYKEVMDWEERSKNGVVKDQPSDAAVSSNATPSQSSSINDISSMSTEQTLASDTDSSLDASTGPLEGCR

[4] = organism: Rattus norvegicus; experiment: Neuroprotective effect against D-amphetamine-induced circling in rats assessed as reduction in behavioral deficits; assay type: functional
[5] = molecular target: T2, Mitogen-activated protein kinase 10 (Homo sapiens, UniProt P53779); experiment: Inhibition of JNK3 (unknown origin) by time-resolved fluorescence assay
T2 sequence (P53779 whole entry, the tested form may be a part): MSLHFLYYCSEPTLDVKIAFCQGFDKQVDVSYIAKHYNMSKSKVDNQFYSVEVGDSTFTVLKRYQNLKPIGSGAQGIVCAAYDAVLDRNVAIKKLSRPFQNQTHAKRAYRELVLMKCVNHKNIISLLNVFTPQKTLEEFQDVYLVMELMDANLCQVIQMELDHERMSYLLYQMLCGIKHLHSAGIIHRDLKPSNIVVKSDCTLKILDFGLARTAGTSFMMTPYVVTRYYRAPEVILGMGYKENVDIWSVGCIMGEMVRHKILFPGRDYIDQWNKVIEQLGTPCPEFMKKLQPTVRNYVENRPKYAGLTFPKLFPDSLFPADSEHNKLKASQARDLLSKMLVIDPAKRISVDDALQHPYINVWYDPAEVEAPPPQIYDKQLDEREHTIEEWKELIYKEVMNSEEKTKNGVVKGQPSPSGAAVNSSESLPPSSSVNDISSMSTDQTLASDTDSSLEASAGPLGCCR

[6] = system: Rattus norvegicus; experiment: Protective activity in rat model of myocardial ischemia-reperfusion injury assessed as reduction in infarct volume at 5 mg/kg; assay type: functional
[7] = molecular target: Cytochrome P450 2D6 (Homo sapiens, UniProt P10635); experiment: Inhibition of CYP2D6 (unknown origin); assay type: ADME
[8] = molecular target: Cytochrome P450 2A6 (Homo sapiens, UniProt P11509); experiment: Inhibition of CYP2A6 (unknown origin); assay type: ADME
Cytochrome P450 2A6, sequence (P11509 whole entry): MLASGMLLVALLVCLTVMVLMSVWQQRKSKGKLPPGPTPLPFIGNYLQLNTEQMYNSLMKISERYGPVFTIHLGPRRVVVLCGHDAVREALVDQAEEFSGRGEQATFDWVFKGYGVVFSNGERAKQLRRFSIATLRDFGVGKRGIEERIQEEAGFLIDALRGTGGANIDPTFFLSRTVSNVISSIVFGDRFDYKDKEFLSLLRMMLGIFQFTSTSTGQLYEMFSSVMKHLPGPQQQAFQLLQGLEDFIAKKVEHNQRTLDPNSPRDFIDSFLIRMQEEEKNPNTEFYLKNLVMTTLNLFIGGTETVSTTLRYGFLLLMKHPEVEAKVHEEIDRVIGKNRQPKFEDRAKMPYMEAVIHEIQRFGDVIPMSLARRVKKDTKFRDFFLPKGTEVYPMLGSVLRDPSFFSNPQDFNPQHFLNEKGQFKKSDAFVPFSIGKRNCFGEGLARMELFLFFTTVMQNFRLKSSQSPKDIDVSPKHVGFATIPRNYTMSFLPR

[9] = molecular target: Mast/stem cell growth factor receptor Kit (Homo sapiens, UniProt P10721, V559D); experiment: Inhibition of KIT V559D (unknown origin)
[10] = molecular target: Cytochrome P450 2C9 (Homo sapiens, UniProt P11712); experiment: Inhibition of CYP2C9 (unknown origin); assay type: ADME
[11] = molecular target: Platelet-derived growth factor receptor beta (Homo sapiens, UniProt P09619); experiment: Inhibition of PDGFRbeta (unknown origin)
[12] = molecular target: T3, Mitogen-activated protein kinase 8 (Homo sapiens, UniProt P45983); experiment: Inhibition of JNK1 (unknown origin) by time-resolved fluorescence assay
T3 sequence (P45983 whole entry): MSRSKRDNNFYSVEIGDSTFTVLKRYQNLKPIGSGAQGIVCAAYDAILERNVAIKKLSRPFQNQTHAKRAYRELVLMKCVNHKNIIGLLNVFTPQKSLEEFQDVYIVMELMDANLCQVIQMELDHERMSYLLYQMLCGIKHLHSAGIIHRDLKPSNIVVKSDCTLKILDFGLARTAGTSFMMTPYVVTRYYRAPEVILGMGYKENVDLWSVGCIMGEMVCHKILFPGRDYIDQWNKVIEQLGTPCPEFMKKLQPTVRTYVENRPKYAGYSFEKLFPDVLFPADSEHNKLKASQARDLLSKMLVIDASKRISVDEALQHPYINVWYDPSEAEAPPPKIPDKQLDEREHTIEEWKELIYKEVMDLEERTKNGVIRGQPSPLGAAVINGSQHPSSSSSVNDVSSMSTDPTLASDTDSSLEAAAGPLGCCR

[13] = molecular target: Cytochrome P450 2B6 (Homo sapiens, UniProt P20813); experiment: Inhibition of CYP2B6 (unknown origin); assay type: ADME
[14] = molecular target: Cytochrome P450 1A2 (Homo sapiens, UniProt P05177); experiment: Inhibition of CYP1A2 (unknown origin); assay type: ADME
[15] = molecular target: Cytochrome P450 2E1 (Homo sapiens, UniProt P05181); experiment: Inhibition of CYP2E1 (unknown origin); assay type: ADME
[16] = molecular target: Cytochrome P450 2C19 (Homo sapiens, UniProt P33261); experiment: Inhibition of CYP2C19 (unknown origin); assay type: ADME
[17] = molecular target: Non-receptor tyrosine-protein kinase TYK2 (Homo sapiens, UniProt P29597); experiment: Inhibition of TYK2 (unknown origin)
[18] = Neuroprotective effect against MPP+-induced cell death in primary cultures of mouse mesencephalic dopaminergic neurons […] single dose after 8 hrs; assay type: functional
[19] = molecular target: Cytochrome P450 3A4 (Homo sapiens, UniProt P08684); experiment: Inhibition of CYP3A4 (unknown origin); assay type: ADME
[20] = molecular target: Mast/stem cell growth factor receptor Kit (Homo sapiens, UniProt P10721); experiment: Inhibition of KIT (unknown origin)
Mast/stem cell growth factor receptor Kit (Homo sapiens, UniProt P10721), sequence (P10721 whole entry): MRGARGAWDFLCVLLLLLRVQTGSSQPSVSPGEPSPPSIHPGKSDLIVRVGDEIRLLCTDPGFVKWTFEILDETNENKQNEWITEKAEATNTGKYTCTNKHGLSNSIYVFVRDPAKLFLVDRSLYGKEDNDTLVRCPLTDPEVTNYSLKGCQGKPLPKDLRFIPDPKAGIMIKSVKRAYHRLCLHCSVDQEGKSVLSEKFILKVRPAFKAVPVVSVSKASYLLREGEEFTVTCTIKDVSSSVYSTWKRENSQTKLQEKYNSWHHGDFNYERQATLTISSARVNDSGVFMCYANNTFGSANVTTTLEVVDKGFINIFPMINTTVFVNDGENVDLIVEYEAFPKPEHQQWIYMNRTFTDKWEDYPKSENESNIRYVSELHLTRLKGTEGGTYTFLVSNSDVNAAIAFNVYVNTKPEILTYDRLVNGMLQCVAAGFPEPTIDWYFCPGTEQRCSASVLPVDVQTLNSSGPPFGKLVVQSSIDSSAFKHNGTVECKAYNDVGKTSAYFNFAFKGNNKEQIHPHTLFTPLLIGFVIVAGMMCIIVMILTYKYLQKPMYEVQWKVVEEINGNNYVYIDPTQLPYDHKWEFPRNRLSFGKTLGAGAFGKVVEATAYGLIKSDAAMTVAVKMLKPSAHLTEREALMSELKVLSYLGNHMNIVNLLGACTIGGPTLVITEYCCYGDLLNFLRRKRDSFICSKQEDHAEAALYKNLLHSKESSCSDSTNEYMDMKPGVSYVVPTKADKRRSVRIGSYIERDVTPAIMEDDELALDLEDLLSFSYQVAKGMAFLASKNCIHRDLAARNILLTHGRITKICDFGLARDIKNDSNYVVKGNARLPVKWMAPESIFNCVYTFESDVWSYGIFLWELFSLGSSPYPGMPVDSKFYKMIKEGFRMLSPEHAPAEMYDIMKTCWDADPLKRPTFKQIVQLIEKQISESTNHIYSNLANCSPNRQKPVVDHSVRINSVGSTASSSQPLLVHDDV

[21] = molecular target: Cytochrome P450 2C8 (Homo sapiens, UniProt P10632); experiment: Inhibition of CYP2C8 (unknown origin); assay type: ADME
[22] = organism: Rattus norvegicus; experiment: Ratio of drug level brain to plasma in rat; assay type: ADME, organism-based
[23] = Oral bioavailability in rat; assay type: ADME, organism-based; conditions: in vivo
[24] = Half life in rat at 1 mg/kg, iv and 2 mg/kg, po; assay type: ADME, organism-based; conditions: in vivo
[25] = Oral bioavailability in rat at 2 mg/kg; assay type: ADME, organism-based; conditions: in vivo
[26] = Clearance in rat at 1 mg/kg, iv and 2 mg/kg, po; assay type: ADME, organism-based; conditions: in vivo
[27] = molecular target: Casein kinase I isoform delta (Homo sapiens, UniProt P48730); experiment: Inhibition of CK1delta (unknown origin) by KINOMEScan assay
Casein kinase I isoform delta, sequence (P48730 whole entry, canonical isoform): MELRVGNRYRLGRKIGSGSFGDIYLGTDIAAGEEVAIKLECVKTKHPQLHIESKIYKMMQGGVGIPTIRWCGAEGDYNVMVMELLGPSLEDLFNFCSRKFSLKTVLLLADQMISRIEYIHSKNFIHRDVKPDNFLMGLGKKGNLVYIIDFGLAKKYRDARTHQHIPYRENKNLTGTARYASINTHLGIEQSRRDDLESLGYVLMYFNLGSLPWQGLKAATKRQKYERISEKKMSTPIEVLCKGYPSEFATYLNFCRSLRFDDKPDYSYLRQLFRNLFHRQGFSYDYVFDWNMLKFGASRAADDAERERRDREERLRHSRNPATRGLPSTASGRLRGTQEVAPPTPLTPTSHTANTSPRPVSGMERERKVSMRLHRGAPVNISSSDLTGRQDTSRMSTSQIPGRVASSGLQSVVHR

[28] = molecular target: Phosphatidylinositol 4,5-bisphosphate 3-kinase catalytic subunit gamma isoform (Homo sapiens, UniProt P48736); experiment: Inhibition of PI3Kgamma (unknown origin) by KINOMEScan assay
Phosphatidylinositol 4,5-bisphosphate 3-kinase catalytic subunit gamma isoform, sequence (P48736 whole entry, canonical isoform): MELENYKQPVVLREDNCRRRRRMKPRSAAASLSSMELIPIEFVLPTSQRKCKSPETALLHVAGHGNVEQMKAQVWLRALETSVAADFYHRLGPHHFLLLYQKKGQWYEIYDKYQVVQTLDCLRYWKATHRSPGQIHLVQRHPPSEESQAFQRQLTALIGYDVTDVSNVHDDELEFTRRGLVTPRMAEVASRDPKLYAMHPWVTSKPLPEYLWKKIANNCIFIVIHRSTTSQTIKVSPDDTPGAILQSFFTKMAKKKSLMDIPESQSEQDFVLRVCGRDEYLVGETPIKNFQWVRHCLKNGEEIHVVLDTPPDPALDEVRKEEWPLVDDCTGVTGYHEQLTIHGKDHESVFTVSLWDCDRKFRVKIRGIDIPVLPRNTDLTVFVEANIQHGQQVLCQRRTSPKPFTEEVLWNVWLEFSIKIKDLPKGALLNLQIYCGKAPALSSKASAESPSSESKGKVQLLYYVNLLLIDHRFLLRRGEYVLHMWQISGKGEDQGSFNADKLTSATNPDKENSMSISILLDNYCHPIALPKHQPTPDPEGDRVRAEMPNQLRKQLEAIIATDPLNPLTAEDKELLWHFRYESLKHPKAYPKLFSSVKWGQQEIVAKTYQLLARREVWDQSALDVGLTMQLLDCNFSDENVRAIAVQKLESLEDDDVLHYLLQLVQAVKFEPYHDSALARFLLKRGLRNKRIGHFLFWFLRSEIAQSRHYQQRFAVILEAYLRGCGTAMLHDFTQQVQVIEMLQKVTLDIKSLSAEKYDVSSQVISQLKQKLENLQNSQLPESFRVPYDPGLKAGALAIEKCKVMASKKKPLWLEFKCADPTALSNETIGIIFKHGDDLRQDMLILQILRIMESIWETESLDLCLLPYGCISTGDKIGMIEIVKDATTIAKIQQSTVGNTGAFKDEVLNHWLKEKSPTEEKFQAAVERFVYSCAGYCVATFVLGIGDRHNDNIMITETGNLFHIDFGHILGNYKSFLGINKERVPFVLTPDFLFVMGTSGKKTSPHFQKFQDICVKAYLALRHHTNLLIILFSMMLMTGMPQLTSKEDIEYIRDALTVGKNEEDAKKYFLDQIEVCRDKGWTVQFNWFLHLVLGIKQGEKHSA

[29] = molecular target: MAP kinase-interacting serine/threonine-protein kinase 2 (Homo sapiens, UniProt Q9HBH9); experiment: Inhibition of MKNK2 (unknown origin) by KINOMEScan assay
MAP kinase-interacting serine/threonine-protein kinase 2, sequence (Q9HBH9 whole entry): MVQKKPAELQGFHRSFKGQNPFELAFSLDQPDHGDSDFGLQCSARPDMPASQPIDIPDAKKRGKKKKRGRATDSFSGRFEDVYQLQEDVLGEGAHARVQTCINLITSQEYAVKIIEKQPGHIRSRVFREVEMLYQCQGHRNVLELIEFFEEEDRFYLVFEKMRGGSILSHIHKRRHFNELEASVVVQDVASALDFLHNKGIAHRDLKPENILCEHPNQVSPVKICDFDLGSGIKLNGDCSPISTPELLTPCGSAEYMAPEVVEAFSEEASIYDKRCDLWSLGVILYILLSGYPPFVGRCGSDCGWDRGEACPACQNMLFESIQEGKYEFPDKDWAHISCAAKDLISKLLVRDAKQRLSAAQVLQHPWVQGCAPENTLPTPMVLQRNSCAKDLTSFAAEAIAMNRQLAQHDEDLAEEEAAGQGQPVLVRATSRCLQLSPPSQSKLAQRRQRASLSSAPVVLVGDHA

[30] = molecular target: T1, Mitogen-activated protein kinase 9; experiment: Inhibition of JNK2 (unknown origin)
[31] = molecular target: T3, Mitogen-activated protein kinase 8; experiment: Inhibition of JNK1 (unknown origin)
[32] = molecular target: T1, Mitogen-activated protein kinase 9; experiment: Inhibition of JNK2 (unknown origin) by JIP-FP displacement assay
[33] = molecular target: Leucine-rich repeat serine/threonine-protein kinase 2 (Homo sapiens, UniProt Q5S007, G2019S); experiment: Inhibition of LRRK2 G2019S mutant (unknown origin)
[34] = molecular target: T3, Mitogen-activated protein kinase 8; experiment: Inhibition of JNK1 (unknown origin) by JIP-FP displacement assay
[35] = molecular target: T2, Mitogen-activated protein kinase 10; experiment: Inhibition of JNK3 (unknown origin) by JIP-FP displacement assay
[36] = molecular target: T2, Mitogen-activated protein kinase 10; experiment: Inhibition of JNK3-mediated c-jun phosphorylation in human A375 cells after 1 hr incubation; assay type: cell-based, A-375
[37] = molecular target: T3, Mitogen-activated protein kinase 8; experiment: Inhibition of JNK1 (unknown origin) after 1 hr incubation
[38] = molecular target: T2, Mitogen-activated protein kinase 10; experiment: Inhibition of JNK3-mediated c-jun phosphorylation in human HeLa cells after 1 hr incubation; assay type: cell-based

Mitogen-activated protein kinase 10 (Rattus norvegicus, UniProt P49187), sequence (P49187 whole entry): as the sequence (P53779 whole entry, the tested form may be a part) above, with Q27H, Y32S, I33V, A34V counted along it

SMILES: COc1cc(NC(=O)c2cccc(-n3cc(NC(=O)Nc4ccccc4)cn3)c2)cc(OC)c1OC
- IC50 [1]: 1200 nM
- IC50 [2]: 3700 nM

SMILES: Cn1cc(-c2ccc3cnc(Nc4ccc(-n5cnc(N6CCOCC6)n5)cc4)nc3c2)cn1
- IC50 [1]: 310 nM
- IC50 [3]: 90 nM

SMILES: Cc1ccc(-c2ncn(-c3ccc(Nc4nccc(-c5cccc(N6CCOCC6)c5)n4)cc3)n2)cn1
- inhibition (INH) [4]: 90%
- IC50 [5]: 159 nM
- inhibition in vivo at 5 mg/kg [6]: 34%
- IC50 [7]: > 50000 nM
- IC50 [8]: > 50000 nM
- Kd [9]: < 1000 nM
- IC50 [1]: 216 nM
- IC50 [10]: > 50000 nM
- Kd [11]: < 1000 nM
- IC50 [12]: 67 nM
- IC50 [13]: > 50000 nM
- IC50 [14]: > 50000 nM
- IC50 [15]: > 50000 nM
- IC50 [16]: > 50000 nM
- Kd [17]: < 1000 nM
- Activity [18]: >90%
- IC50 [19]: > 50000 nM
- IC50 [3]: 283 nM
- IC50 [2]: > 20000 nM
- Kd [20]: > 20000 nM
- IC50 [21]: > 50000 nM

SMILES: NC(=O)c1ccccc1Nc1nc(Nc2ccc(N3CCOCC3)cc2)ncc1Cl
- IC50 [5]: 0.3 nM
- IC50 [12]: 1 nM

SMILES: COc1cc(N2CCOCC2)ccc1Nc1ncc(Cl)c(Nc2ccccc2C(N)=O)n1
- BPR [22]: 17%
- IC50 [5]: 0.8 nM
- bioavailability [23]: 30%
- IC50 [1]: 3 nM
- IC50 [12]: 3 nM

SMILES: NC(=O)c1ccccc1Nc1nc(Nc2ccc(N3CCCC3=O)cc2)ncc1Cl
- IC50 [12]: 0.24 nM

SMILES: CN(C)c1ccc(-c2cnc3[nH]cc(-c4cn[nH]c4)c3c2)cc1
- IC50 [5]: 32 nM
- IC50 [12]: 101 nM
- IC50 [3]: 59 nM

SMILES: COc1cc(NC(=O)c2cccc(-n3cc(NC(=O)Nc4cccc(C)c4)cn3)c2)cc(OC)c1OC
- IC50 [1]: 1300 nM
- IC50 [12]: 17 nM
- IC50 [2]: > 20000 nM
- Kd [20]: > 20000 nM

SMILES: COc1ccc(CC(=O)Nc2cc3cc(-c4cnn(C)c4)ccc3cn2)cc1
- IC50 [12]: 0.8 nM

SMILES: O=C(O/N=C1/c2ccccc2-c2nc3ccccc3nc21)c1ccco1
- Kd [27]: 560 nM
- Kd [28]: 430 nM
- Kd [30]: 290 nM
- Kd [29]: 1200 nM
- Kd [31]: 240 nM

SMILES: COc1ccc2c(c1)OCC(C(=O)NC(=O)N(CC(=O)NCCCCCCNC(=O)c1ccc(-c3n[nH]c4ccccc34)cc1)CC(C)C)O2 (stereo not given)
- IC50 [1]: 2800 nM
- IC50 [32]: 336 nM
- IC50 [33]: 99 nM
- IC50 [34]: 109 nM
- IC50 [35]: 12 nM

SMILES: CN(C)C/C=C/C(=O)Nc1ccc(C(=O)Nc2cccc(Nc3nccc(-c4cccnc4)n3)c2)cc1
- IC50 [36]: 2400 nM

SMILES: CN(C)C/C=C/C(=O)Nc1cccc(C(=O)Nc2ccc(Nc3nccc(-c4cccnc4)n3)cc2)c1
- IC50 [37]: 1.5 nM

SMILES: CN(C)C/C=C/C(=O)Nc1cccc(C(=O)Nc2ccc(Nc3nccc(-c4c(-c5ccccc5)nn5ccccc45)n3)cc2)c1
- IC50 [36]: 9 nM
- IC50 [37]: 1.3 nM
- IC50 [38]: 48 nM

SMILES: CS(=O)(=O)Nc1ccc(-c2ccnc(Nc3ccc(-n4ccnn4)cc3)n2)cc1
- IC50 [1]: 210 nM
- IC50 [2]: > 20000 nM

The next lines start with the values.

- Kd [20]: < 1000 nM
SMILES: O=C(NCCN1CCOCC1)c1ccnc(-n2ncc3cc(Nc4ccccc4Cl)ccc32)c1

- IC50 [5]: 85 nM
- IC50 [12]: 74 nM
- IC50 [3]: 123 nM
SMILES: Cn1cc(-c2c[nH]c3ncc([C@H]4CC[C@H](N5CCOCC5)CC4)cc23)cn1

- IC50 [12]: 166 nM
- IC50 [3]: 339 nM
SMILES: Cn1cc(-c2c[nH]c3ncc([C@H]4CC[C@H](N5CCCOCC5)CC4)cc23)cn1

- half-life [24]: 3.3 min
- IC50 [5]: 40 nM
- IC50 [12]: 970 nM
- bioavailability [25]: 27%
- clearance [26]: 25 mL/min/kg
SMILES: O=C(NCCN1CCN(C2CCC2)CC1)c1cccc(-n2ncc3cc(Nc4ccccc4Cl)ccc32)c1

- Kd [27]: 380 nM
- Kd [28]: 470 nM
- Kd [29]: 920 nM
SMILES: O/N=C1/c2ccccc2-c2nc3ccccc3nc21

- Kd [27]: 5700 nM
- Kd [28]: 12000 nM
- Kd [30]: 280 nM
- Kd [29]: 10000 nM
- Kd [31]: 270 nM
SMILES: COc1ccc(C(=O)O/N=C2/c3ccccc3-c3nc4ccccc4nc32)cc1OC

- IC50 [1]: 54 nM
- IC50 [3]: 99 nM
- IC50 [2]: > 20000 nM
SMILES: Fc1cc(-c2cc[nH]/c(=N/c3ccc(-n4cnc(N5CCOCC5)n4)cc3)n2)cc(N2CCOCC2)c1
